Measured values taken from US11806346B2, “HTT modulators for treating Huntington's disease” (CHDI Foundation, Inc., priority 2020, dated 2023).

System: tHTT (total HTT protein)
Assay: Time-resolved FRET assay, total huntingtin (tHTT) detection in cell lysates
Assay type: cell-based, human
Conditions: GEN020 hESCs (mutant 48 Q repeat allele), compounds added for 48 hours, TR-FRET on lysate; read-out: tHTT EC50
Procedure, shortened: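 TR-FRET readout on cell lysates, with the donor/acceptor ratio reflecting relative total HTT.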

Compound | EC50
Cc1cn2cc(NC(=O)c3cnc(N4CC[C@@H](N(C)C5CC5)C4)cn3)cc(F)c2n1 [Example 187, (R)-5-(3-(Cyclopropyl(methyl)amino)pyrrolidin-1-yl)-N-(8-fluoro-2-methylimidazo[1,2-a]pyridin-6-yl)pyrazine-2-carboxamide] | 1 to 10 µM
Cc1cn2cc(NC(=O)c3cnc(N4CC[C@H](N(C)C5CC5)C4)cn3)cc(F)c2n1 [Example 188] | 0.5 to 1 µM
COc1nc(NC(=O)c2cnc(N3CC[C@@H](CNC4CC4)C3)cn2)cn2cc(C)nc12 [Example 189, (S)-5-(3-((cyclopropylamino)methyl)pyrrolidin-1-yl)-N-(8-methoxy-2-methylimidazo[1,2-a]pyrazin-6-yl)pyrazine-2-carboxamide] | 0.1 to 0.5 µM
Cc1cn2cc(NC(=O)c3cnc(N4CC(CNC5CC5)C4)cn3)cc(F)c2n1 [Example 190, 5-(3-((cyclopropylamino)methyl)azetidin-1-yl)-N-(8-fluoro-2-methylimidazo[1,2-a]pyridin-6-yl)pyrazine-2-carboxamide] | < 0.1 µM
Cc1cn2cc(NC(=O)c3cnc(N4CC(CN5CC[C@H](F)C5)C4)cn3)cc(F)c2n1 [Example 191] | 0.1 to 0.5 µM
Cc1cn2cc(NC(=O)c3cnc(N4CC(CNCC(F)F)C4)cn3)cc(F)c2n1 [Example 192] | 0.1 to 0.5 µM
Cc1cn2cc(NC(=O)c3cnc(N4CC(CN5CC[C@H](F)C5)C4)cn3)nc(C)c2n1 [Example 193] | 0.1 to 0.5 µM
Cc1cn2cc(NC(=O)c3cnc(N4CC(CNCC(F)F)C4)cn3)nc(C)c2n1 [Example 194] | 0.5 to 1 µM
COc1nc(NC(=O)c2cnc(N3CC(C(C)NC4CC4)C3)cn2)cn2cc(C)nc12 (stereo not drawn) [Example 195] | 0.1 to 0.5 µM
COc1nc(NC(=O)c2cnc(N3CC(C(C)NC4CC4)C3)cn2)cn2cc(C)nc12 (stereo not drawn) [Example 196] | 0.1 to 0.5 µM
COc1nc(NC(=O)c2cnc(N3CC(CNCCC(F)(F)F)C3)cn2)cn2cc(C)nc12 [Example 197] | 0.1 to 0.5 µM
Cc1cn2cc(NC(=O)c3cnc(N4CC(CNCCC(F)(F)F)C4)cn3)nc(C)c2n1 [Example 198] | 0.1 to 0.5 µM
COC1CN(CC2CN(c3cnc(C(=O)Nc4cc(F)c5nc(C)cn5c4)cn3)C2)C1 [Example 199] | 0.1 to 0.5 µM
COC1CCN(CC2CN(c3cnc(C(=O)Nc4cc(F)c5nc(C)cn5c4)cn3)C2)C1 (stereo not drawn) [Example 200] | 0.1 to 0.5 µM
Cc1cn2cc(NC(=O)c3cnc(N4CC(CN5CC[C@@H](F)C5)C4)cn3)cc(F)c2n1 [Example 201] | 0.1 to 0.5 µM
Cc1cn2cc(NC(=O)c3cnc(N4CC(CN(C)C5CC5)C4)cn3)cc(F)c2n1 [Example 202] | 0.1 to 0.5 µM
Cc1cn2cc(NC(=O)c3cnc(N4CC(C(C)NC5CC5)C4)cn3)nc(C)c2n1 (stereo not drawn) [Example 203] | 0.5 to 1 µM
Cc1cn2cc(NC(=O)c3cnc(N4CC(C(C)NC5CC5)C4)cn3)nc(C)c2n1 (stereo not drawn) [Example 204] | 0.1 to 0.5 µM
Cc1cn2cc(NC(=O)c3cnc(N4CC(CNCCC(F)(F)F)C4)cn3)cc(F)c2n1 [Example 205] | < 0.1 µM
Cn1cc2cc(NC(=O)c3cnc(N4CC(CNCCC(F)(F)F)C4)cn3)cc(F)c2n1 [Example 206] | 0.1 to 0.5 µM
Cc1cn2cc(NC(=O)c3cnc(N4CC[C@@H](CNCCC(F)(F)F)C4)cn3)cc(F)c2n1 [Example 207, (S)—N-(8-fluoro-2-methylimidazo[1,2-a]pyridin-6-yl)-5-(3-(((3,3,3-trifluoropropyl)amino)methyl)pyrrolidin-1-yl)pyrazine-2-carboxamide] | 0.1 to 0.5 µM
CNC1(C2CN(c3cnc(C(=O)Nc4cc(F)c5nc(C)cn5c4)cn3)C2)CC1 [Example 208, N-(8-fluoro-2-methylimidazo[1,2-a]pyridin-6-yl)-5-(3-(1-(methylamino)cyclopropyl)azetidin-1-yl)pyrazine-2-carboxamide] | 0.1 to 0.5 µM
COc1nc(NC(=O)c2cnc(N3CC(CNC4CC4)C3)cn2)cn2cc(C)nc12 [Example 210] | < 0.1 µM
COc1nc(NC(=O)c2cnc(N3CC4(CCCN(C)C4)C3)cn2)cn2cc(C)nc12 [Example 211] | 0.1 to 0.5 µM
